From US7999069B2, “EphB receptor-binding peptides” (Sanford-Burnham Medical Research Institute, priority 2005, dated 2011)
No end group written: not given here.

Experiments:
Eph receptor Fc proteins = assay: Immobilized biotinylated peptides capturing Eph receptor Fc proteins on streptavidin plates; assay type: binding; conditions: A- and B-class Eph receptor Fc proteins
Protocol: To measure the specificity of peptide binding to Eph receptors, biotinylated peptides were immobilized on streptavidin-coated plates at 10 μM (Pierce Biotechnology, Rockford, Ill.) and incubated for 1 hr with different Eph ectodomain Fc fusion proteins at 2.5 μg/ml in binding buffer. Bound receptor was detected using an anti-Fc antibody coupled to alkaline phosphatase (Promega) with p-nitrophenylphosphate as substrate (Pierce). The background that was subtracted from the measurements was determined by omitting the Eph ectodomain.
Biotinylated peptides were immobilized on streptavidin-coated plates and used to capture Eph receptor Fc proteins. Bound receptor was detected using anti-Fc antibody coupled to alkaline phosphatase and was normalized to the value in the well with highest receptor binding.

EphB1 [1] = target: T1, EphB1 (Homo sapiens, UniProt P54762); assay: Ephrin-B1 Fc-induced EphB1 tyrosine phosphorylation in human aortic endothelial cells; assay type: cell-based; conditions: concentrations up to 200 μM
T1 construct: endogenous EphB1 tyrosine phosphorylation; endogenous in cells; host or cells: human aortic endothelial cells
T1 sequence (P54762 18-984): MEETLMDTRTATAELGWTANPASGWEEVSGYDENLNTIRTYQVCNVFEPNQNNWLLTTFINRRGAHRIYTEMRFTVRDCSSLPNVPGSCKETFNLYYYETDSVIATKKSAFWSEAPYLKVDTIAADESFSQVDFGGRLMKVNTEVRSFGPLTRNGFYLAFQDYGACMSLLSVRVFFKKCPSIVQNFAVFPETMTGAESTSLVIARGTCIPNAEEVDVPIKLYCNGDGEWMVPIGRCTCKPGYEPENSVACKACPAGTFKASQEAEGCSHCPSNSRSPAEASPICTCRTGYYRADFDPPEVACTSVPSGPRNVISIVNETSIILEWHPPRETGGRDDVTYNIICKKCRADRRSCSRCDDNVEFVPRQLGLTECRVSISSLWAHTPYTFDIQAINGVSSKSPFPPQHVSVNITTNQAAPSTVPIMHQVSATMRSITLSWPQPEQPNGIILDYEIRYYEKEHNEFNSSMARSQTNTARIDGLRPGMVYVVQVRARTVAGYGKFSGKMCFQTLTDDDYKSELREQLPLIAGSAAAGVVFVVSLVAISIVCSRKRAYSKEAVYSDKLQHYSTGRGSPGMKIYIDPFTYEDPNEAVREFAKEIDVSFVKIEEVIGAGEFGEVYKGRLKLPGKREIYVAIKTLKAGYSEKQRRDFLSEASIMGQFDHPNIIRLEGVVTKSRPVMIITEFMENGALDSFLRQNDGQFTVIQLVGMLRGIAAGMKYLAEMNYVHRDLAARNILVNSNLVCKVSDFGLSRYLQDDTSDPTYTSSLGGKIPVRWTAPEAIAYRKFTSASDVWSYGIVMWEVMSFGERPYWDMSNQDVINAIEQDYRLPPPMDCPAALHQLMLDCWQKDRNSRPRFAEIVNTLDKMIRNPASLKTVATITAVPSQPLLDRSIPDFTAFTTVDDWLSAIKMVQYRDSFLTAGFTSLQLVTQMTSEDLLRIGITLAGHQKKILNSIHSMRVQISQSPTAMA

EphB receptors = assay: Ephrin-B2 AP binding to different EphB ectodomains in presence of peptide (selectivity); conditions: 50 μM peptide
Protocol: Ephrin-B2 AP binding to the indicated immobilized EphB receptor ectodomains was measured in the presence of the indicated peptides and detected by measuring alkaline phosphatase activity. […] Wells coated with the different EphB ectodomains were incubated with ephrin-B2 AP and 50 μM of the indicated peptides. Ephrin-B2 AP binding in the presence of peptide was normalized to binding in the absence of peptide. All peptides were biotinylated except for FSPQ and EWYM. […] The EWYM, TWO, and FSPQ peptides were not synthesized with a biotin tag and therefore were tested directly for inhibition of ephrin-B2 binding.
Ephrin-B2 AP was co-incubated for 1 hr with different peptide concentrations in Ni-NTA wells coated with 1 μg/ml Eph receptor Fc. After several washes, the amount of ephrin-B2-AP bound was quantified using p-nitrophenylphosphate as a substrate. Alkaline phosphatase activity from wells without EphB Fc was subtracted as background. […] In these experiments, the two peptides are not biotinylated. […] Ephrin-B2-AP binding in the presence of peptide was normalized to binding in the absence of peptide in (A) and (B).

EphB1 [2] = target: T2, EphB1 (Homo sapiens, UniProt P54762); assay: Inhibition of ephrin-B2 AP binding to immobilized EphB1 ectodomain
T2 construct: panned on the ectodomains of EphB1, EphB2, or EphB4 fused to human Fc
T2 sequence (P54762 18-540 limits assumed): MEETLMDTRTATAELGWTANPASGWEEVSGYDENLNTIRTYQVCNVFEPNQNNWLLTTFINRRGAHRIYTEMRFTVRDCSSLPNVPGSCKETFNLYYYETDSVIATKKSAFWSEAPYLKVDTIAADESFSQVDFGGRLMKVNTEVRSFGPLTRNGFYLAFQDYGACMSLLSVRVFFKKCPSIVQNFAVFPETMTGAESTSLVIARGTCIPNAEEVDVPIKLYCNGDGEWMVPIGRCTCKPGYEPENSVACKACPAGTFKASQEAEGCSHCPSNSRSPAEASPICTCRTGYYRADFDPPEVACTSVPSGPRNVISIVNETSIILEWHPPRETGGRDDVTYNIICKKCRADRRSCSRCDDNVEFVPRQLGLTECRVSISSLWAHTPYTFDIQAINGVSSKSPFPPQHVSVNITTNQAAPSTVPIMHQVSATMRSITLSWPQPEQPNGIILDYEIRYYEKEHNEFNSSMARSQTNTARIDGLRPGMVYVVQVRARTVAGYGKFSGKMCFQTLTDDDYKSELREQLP
Protocol: Peptides that bind to the same receptor region as the ephrins would be expected to inhibit Eph receptor-ephrin association, if they interact with sufficient affinity. A number of synthetic peptides were tested for their ability to inhibit binding of alkaline phosphatase-tagged ephrin-B2 (ephrin-B2-AP) to EphB receptors (FIG. 3). Most of the peptides were synthesized with a biotin tag and immobilized on streptavidin plates to verify their ability to capture the EphB ectodomains used for their isolation.
Ephrin-B2 AP binding to the indicated immobilized EphB receptor ectodomains was measured in the presence of the indicated peptides and detected by measuring alkaline phosphatase activity. […]. […] Wells coated with the different EphB ectodomains were incubated with ephrin-B2 AP and 50 μM of the indicated peptides. Ephrin-B2 AP binding in the presence of peptide was normalized to binding in the absence of peptide. All peptides were biotinylated except for FSPQ and EWYM. […] Therefore, IPWT was not used for further experiments. […]
The GP motif aligns with the GP motif of TNYL and the RAW motif aligns precisely next to the last amino acid of TNYL. […] After several washes, the amount of ephrin-B2-AP bound was quantified using p-nitrophenylphosphate as a substrate. […]

EWLSPNLAPSVR [SEQ ID NO 1]
Eph receptor binding selectivity of immobilized biotinylated peptide (Eph receptor Fc proteins): bound selectively to EphB1
Inhibition of endogenous EphB1 tyrosine phosphorylation (EphB1 [1]): did not inhibit endogenous EphB1 tyrosine phosphorylation
Selectivity of antagonism of ephrin-B2 AP binding across EphB ectodomains (EphB receptors): selective
Inhibition of ephrin-B2 AP binding to EphB1 (in words) (EphB1 [2]): inhibited ephrin binding to EphB1
